# Data as given in ChEMBL document CHEMBL5634136 (Eur J Med Chem, 2023).
# Legend:
# [1] = Antiproliferative activity against mouse KC-0122 cells assessed as inhibition of cell growth incubated for 72 hrs by MTT assay; assay type: functional, cell-based; settings: KC-0122, 72 h
# [2] = Antiproliferative activity against mouse KC-0116 cells assessed as inhibition of cell growth incubated for 72 hrs by MTT assay; assay type: functional, cell-based; settings: KC-0116, 72 h
# [3] = target: Epidermal growth factor receptor (Mus musculus) (UniProt Q01279); assay: Inhibition of EGFR in mouse KC-0122 cells assessed as downregulation of AKT protein expression level incubated for 24 hrs by Western blotting analysis; assay type: cell-based
# [4] = target: Epidermal growth factor receptor (Mus musculus) (UniProt Q01279); assay: Inhibition of EGFR in mouse KC-0116 cells assessed as downregulation of ERK protein expression level incubated for 24 hrs by Western blotting analysis; assay type: cell-based
# [5] = target: Epidermal growth factor receptor (Mus musculus) (UniProt Q01279); assay: Inhibition of EGFR in mouse KC-0122 cells assessed as downregulation of EGFR phosphorylation level incubated for 24 hrs by Western blotting analysis; assay type: cell-based
# [6] = test system: HepG2; assay: Antiproliferative activity against human HepG2 cells harboring VEGFR assessed as inhibition of cell growth incubated for 72 hrs by MTT assay; assay type: functional, cell-based; settings: HepG2, 72 h
# [7] = test system: HCC827; assay: Antiproliferative activity against human HCC827 cells harboring EGFR Del19 mutant assessed as inhibition of cell growth incubated for 72 hrs by MTT assay; assay type: functional, cell-based; settings: HCC827, 72 h
# [8] = test system: A-431; assay: Antiproliferative activity against human A-431 cells harboring wild type EGFR assessed as inhibition of cell growth incubated for 72 hrs by MTT assay; assay type: functional, cell-based; settings: A-431, 72 h
# [9] = target: Epidermal growth factor receptor (Mus musculus) (UniProt Q01279); assay: Inhibition of EGFR in mouse KC-0116 cells assessed as downregulation of AKT protein expression level incubated for 24 hrs by Western blotting analysis; assay type: cell-based
# [10] = target: Epidermal growth factor receptor (Mus musculus) (UniProt Q01279); assay: Inhibition of EGFR in mouse KC-0116 cells assessed as downregulation of EGFR phosphorylation level incubated for 24 hrs by Western blotting analysis; assay type: cell-based
# [11] = target: Epidermal growth factor receptor (Mus musculus) (UniProt Q01279); assay: Inhibition of EGFR in mouse KC-0122 cells assessed as downregulation of ERK protein expression level incubated for 24 hrs by Western blotting analysis; assay type: cell-based
# [12] = test system: NCI-H1975; assay: Antiproliferative activity against human NCI-H1975 cells harboring EGFR L858R/T790M mutant assessed as inhibition of cell growth incubated for 72 hrs by MTT assay; assay type: functional, cell-based; settings: NCI-H1975, 72 h
# [13] = Induction of apoptosis in mouse KC-0116 cells assessed as viable cells at 1 uM incubated for 48 hrs by annexin V-FITC/ PI staining based flow cytometry (reference value: 93.27 %); assay type: functional
# [14] = Induction of apoptosis in mouse KC-0116 cells assessed as late apoptotic cells at 0.3 uM incubated for 48 hrs by annexin V-FITC/ PI staining based flow cytometry (reference value: 1 %); assay type: functional
# [15] = Induction of apoptosis in mouse KC-0116 cells assessed as late apoptotic cells at 1 uM incubated for 48 hrs by annexin V-FITC/ PI staining based flow cytometry (reference value: 1 %); assay type: functional
# [16] = Induction of apoptosis in mouse KC-0116 cells assessed as early apoptotic cells at 1 uM incubated for 48 hrs by annexin V-FITC/ PI staining based flow cytometry (reference value: 8.09 %); assay type: functional
# [17] = Induction of apoptosis in mouse KC-0116 cells assessed as viable cells at 0.3 uM incubated for 48 hrs by annexin V-FITC/ PI staining based flow cytometry (reference value: 93.27 %); assay type: functional
# [18] = Induction of apoptosis in mouse KC-0116 cells assessed as necrotic cells at 1 uM incubated for 48 hrs by annexin V-FITC/ PI staining based flow cytometry (reference value: 0.04 %); assay type: functional
# [19] = Induction of apoptosis in mouse KC-0116 cells assessed as necrotic cells at 0.3 uM incubated for 48 hrs by annexin V-FITC/ PI staining based flow cytometry (reference value: 0.04 %); assay type: functional
# [20] = Toxicity in BALB/c mouse xenografted with mouse KC-0116 cells assessed as change in body weight at 10 mg/kg,po administrated once daily for 10 days; assay type: organism-based; settings: in vivo, 240 h, time 10 day
# [21] = Induction of apoptosis in mouse KC-0116 cells assessed as early apoptotic cells at 0.3 uM incubated for 48 hrs by annexin V-FITC/ PI staining based flow cytometry (reference value: 8.09 %); assay type: functional
# Chain of Epidermal growth factor receptor (Mus musculus) (Q01279 whole entry): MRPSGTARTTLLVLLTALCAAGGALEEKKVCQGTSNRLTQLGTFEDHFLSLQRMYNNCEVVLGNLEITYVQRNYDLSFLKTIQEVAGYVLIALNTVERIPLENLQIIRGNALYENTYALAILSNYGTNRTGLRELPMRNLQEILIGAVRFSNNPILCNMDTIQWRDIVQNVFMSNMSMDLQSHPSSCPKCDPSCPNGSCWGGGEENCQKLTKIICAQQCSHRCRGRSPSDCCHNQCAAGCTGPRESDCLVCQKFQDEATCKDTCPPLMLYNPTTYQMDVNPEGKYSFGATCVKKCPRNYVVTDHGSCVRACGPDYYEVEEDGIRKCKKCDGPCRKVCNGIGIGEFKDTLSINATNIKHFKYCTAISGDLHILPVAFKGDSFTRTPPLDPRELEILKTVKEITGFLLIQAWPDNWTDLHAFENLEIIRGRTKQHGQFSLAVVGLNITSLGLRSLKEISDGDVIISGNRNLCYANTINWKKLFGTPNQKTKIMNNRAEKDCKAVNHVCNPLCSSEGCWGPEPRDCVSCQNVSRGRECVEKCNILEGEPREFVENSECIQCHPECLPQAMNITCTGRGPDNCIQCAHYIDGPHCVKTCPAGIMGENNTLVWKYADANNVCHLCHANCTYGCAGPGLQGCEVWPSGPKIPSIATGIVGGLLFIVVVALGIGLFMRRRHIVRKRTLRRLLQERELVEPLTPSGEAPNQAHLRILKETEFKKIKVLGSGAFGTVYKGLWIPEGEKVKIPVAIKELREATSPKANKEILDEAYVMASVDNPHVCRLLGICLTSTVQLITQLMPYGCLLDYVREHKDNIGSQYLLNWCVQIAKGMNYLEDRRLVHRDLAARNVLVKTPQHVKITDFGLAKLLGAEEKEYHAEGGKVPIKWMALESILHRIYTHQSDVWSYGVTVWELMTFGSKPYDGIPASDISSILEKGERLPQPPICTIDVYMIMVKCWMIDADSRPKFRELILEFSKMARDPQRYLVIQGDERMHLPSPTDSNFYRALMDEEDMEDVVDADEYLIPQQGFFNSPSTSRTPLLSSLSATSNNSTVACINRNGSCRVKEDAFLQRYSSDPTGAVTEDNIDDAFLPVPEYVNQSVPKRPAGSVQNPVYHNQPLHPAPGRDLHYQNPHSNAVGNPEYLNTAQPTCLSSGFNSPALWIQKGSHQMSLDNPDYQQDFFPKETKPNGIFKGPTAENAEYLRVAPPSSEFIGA
SMILES,IC50 [1] [nM],IC50 [2] [nM],also measured
Cn1cc(-c2ccnc(Nc3cccc(NS(=O)(=O)C4CC4)c3)n2)c2ccccc21,1200,580,
Cn1cc(-c2ccnc(Nc3ccc(N4CCCCC4)cc3)n2)c2ccccc21,> 10000,> 10000,
CN1CCN(C2CCN(c3ccc(Nc4nccc(-c5cn(C)c6ccccc56)n4)cc3)CC2)CC1,1310,840,
Cn1cc(-c2ccnc(Nc3cccc(NC(=O)CCN)c3)n2)c2ccccc21,4770,4990,
COc1cc(N(C)CCN(C)C)c(NC(=O)CCN)cc1Nc1nccc(-c2cn(C)c3ccccc23)n1,1630,1490,
COc1ccc(NC(=O)CN)cc1Nc1nccc(-c2cn(C)c3ccccc23)n1,5280,3760,
COc1cc2c(cc1Nc1nccc(-c3cn(C)c4ccccc34)n1)NC(=O)CCCCCN2CCN(C)C,2840,2360,
CN1CCN(C2CCN(c3ccc(Nc4nccc(-c5cn(C)c6ccccc56)n4)cc3NS(=O)(=O)C3CC3)CC2)CC1,200,170,inhibition [3]: Dose-Dependent Effect; inhibition [4]: Dose-Dependent Effect; inhibition [5]: Dose-Dependent Effect; IC50 [6]: 1500 nM; IC50 [7]: 310 nM; IC50 [8]: 2130 nM; inhibition [9]: Dose-Dependent Effect; inhibition [10]: Dose-Dependent Effect; inhibition [11]: Dose-Dependent Effect; IC50 [12]: 1020 nM
COc1cc(N2CCC(N(C)C)CC2)c(NC(=O)CO)cc1Nc1nccc(-c2cn(C)c3ccccc23)n1,480,460,
CN(C)CCN(C)c1ccc(Nc2nccc(-c3cn(C)c4ccccc34)n2)cc1,1550,1060,
C=CC(=O)Nc1cc(Nc2nccc(-c3cn(C)c4ccccc34)n2)c(OC)cc1N(C)CCN(C)C [OSIMERTINIB],,[…],IC50 [6]: 3060 nM; IC50 [7]: 1 nM; IC50 [8]: […]
COc1cc(N(C)CCN(C)C)c(NC(=O)CN)cc1Nc1nccc(-c2cn(C)c3ccccc23)n1,2720,1320,
COc1cc(N(C)CCN(C)C)c(NC(=O)CNS(C)(=O)=O)cc1Nc1nccc(-c2cn(C)c3ccccc23)n1,1170,1550,
COCC(=O)Nc1cc(Nc2nccc(-c3cn(C)c4ccccc34)n2)c(OC)cc1N1CCC(N(C)C)CC1,450,460,
COc1cc(N(C)CCN(C)C)c(NC(=O)CNC(C)=O)cc1Nc1nccc(-c2cn(C)c3ccccc23)n1,1450,1980,
CN(C)CCN(c1ccc(Nc2nccc(-c3cn(C)c4ccccc34)n2)cc1)S(C)(=O)=O,500,430,
COc1ccc(NC(=O)CCN)cc1Nc1nccc(-c2cn(C)c3ccccc23)n1,1230,1460,

SMILES,IC50 [1] [nM],IC50 [2] [nM],also measured
COc1cc(N2CCC(N3CCN(C)CC3)CC2)ccc1Nc1ncc(Cl)c(Nc2ccccc2P(C)(C)=O)n1 [BRIGATINIB],450,350,Activity [13]: 65.74%; Activity [14]: 1.71%; Activity [15]: 7.32%; Activity [16]: 26.61%; Activity [17]: 92.51%; Activity [18]: 0.32%; Activity [19]: 0.01%; Activity [20]: Non-Toxic; Activity [21]: 6.75%
CN(C)C1CCN(c2ccc(Nc3nccc(-c4cn(C)c5ccccc45)n3)cc2NS(=O)(=O)C2CC2)CC1,250,240,IC50 [6]: 1920 nM; IC50 [7]: 220 nM; IC50 [8]: 2490 nM; IC50 [12]: 1420 nM
COc1cc(N2CCN(C)CC2)c(NC(=O)CN)cc1Nc1nccc(-c2cn(C)c3ccccc23)n1,1170,1650,
Cn1cc(-c2ccnc(Nc3ccc(N4CCC(N5CCOCC5)CC4)cc3)n2)c2ccccc21,5740,1710,
CN(C)CCOc1ccc(Nc2nccc(-c3cn(C)c4ccccc34)n2)cc1,1750,1290,
Cn1cc(-c2ccnc(Nc3ccc(N4CCOCC4)cc3)n2)c2ccccc21,> 10000,7000,
COc1cc(N(C)CCN(C)C)ccc1Nc1nccc(-c2cn(C)c3ccccc23)n1,1610,1760,
CC(=O)N1CCN(c2ccc(Nc3nccc(-c4cn(C)c5ccccc45)n3)cc2)CC1,1500,1050,
COc1cc(N2CCC(N3CCN(C)CC3)CC2)ccc1Nc1nccc(-c2cn(C)c3ccccc23)n1,1390,1170,
COc1cc(N(C)CCN(C)C)c(NC(=O)CO)cc1Nc1nccc(-c2cn(C)c3ccccc23)n1,3090,1390,
CN(C)C1CCN(c2ccc(Nc3nccc(-n4cc(NC(=O)c5ccccc5)cn4)n3)cc2NS(C)(=O)=O)CC1,490,520,
COc1cc(N(C)CCN(C)C)c(NC(=O)CNC(=O)OC(C)(C)C)cc1Nc1nccc(-c2cn(C)c3ccccc23)n1,1280,1290,
CN(C)C1CCN(c2ccc(Nc3nccc(-c4cn(C)c5ccccc45)n3)cc2)CC1,450,400,
CN1CCN(c2ccc(Nc3nccc(-c4cn(C)c5ccccc45)n3)cc2)CC1,540,380,
COc1cc(OCCN(C)C)c(NC(=O)CN)cc1Nc1nccc(-c2cn(C)c3ccccc23)n1,5450,1500,
CN(C)C1CCN(c2ccc(Nc3nccc(-c4cn(C)c5ccccc45)n3)cc2NC(=O)CN)CC1,460,440,
